Experimental data: ChEMBL document CHEMBL1137659, “Molecular epidemiology of clinical isolates of carbapenem-resistant Acinetobacter spp. from Chinese hospitals” (2007)
Values after ≈ are worked out from the molar mass of the structure shown.

What was measured:
[1] = system: Acinetobacter baumannii; test: Antimicrobial activity against imipenem and meropenem-resistant Acinetobacter baumannii isolate FZ84 by CLSI agar dilution method; assay type: functional
[2] = system: Acinetobacter baumannii; test: Antimicrobial activity against imipenem and meropenem-resistant Acinetobacter baumannii isolate ZJ32 by CLSI agar dilution method; assay type: functional
[3] = system: Acinetobacter genospecies 13TU; test: Antimicrobial activity against imipenem and meropenem-resistant Acinetobacter genospecies 13TU isolate CY6 by CLSI agar dilution method
[4] = system: Acinetobacter baumannii; test: Antimicrobial activity against imipenem and meropenem-resistant Acinetobacter baumannii isolate BJ3-9 by CLSI agar dilution method; assay type: functional
[5] = system: Acinetobacter baumannii; test: Antimicrobial activity against imipenem and meropenem-resistant Acinetobacter baumannii isolate JN45 by CLSI agar dilution method; assay type: functional
[6] = system: Acinetobacter genospecies 10/11; test: Antimicrobial activity against imipenem and meropenem-resistant Acinetobacter genospecies 10/11 isolate ZS15 by CLSI agar dilution method
[7] = system: Acinetobacter phenon 6/ct 13TU (Acinetobacter sp.); test: Antimicrobial activity against imipenem and meropenem-resistant Acinetobacter phenon 6/ct 13TU isolate PU86 by CLSI agar dilution method
[8] = system: Acinetobacter baumannii; test: Antimicrobial activity against imipenem and meropenem-resistant Acinetobacter baumannii isolate PUA1 by CLSI agar dilution method; assay type: functional
[9] = system: Acinetobacter baumannii; test: Antimicrobial activity against imipenem and meropenem-resistant Acinetobacter baumannii isolate ZJ49 by CLSI agar dilution method; assay type: functional
[10] = system: Acinetobacter baumannii; test: Antimicrobial activity against imipenem and meropenem-resistant Acinetobacter baumannii isolate PU73 by CLSI agar dilution method; assay type: functional
[11] = system: Acinetobacter baumannii; test: Antimicrobial activity against imipenem and meropenem-resistant Acinetobacter baumannii isolate CY7 by CLSI agar dilution method; assay type: functional
[12] = system: Acinetobacter baumannii; test: Antimicrobial activity against imipenem and meropenem-resistant Acinetobacter baumannii isolate ZJ58 by CLSI agar dilution method; assay type: functional
[13] = system: Acinetobacter baumannii; test: Antimicrobial activity against imipenem and meropenem-resistant Acinetobacter baumannii isolate FW-F1 by CLSI agar dilution method; assay type: functional
[14] = system: Acinetobacter baumannii; test: Antimicrobial activity against imipenem and meropenem-resistant Acinetobacter baumannii isolate PU4A1 by CLSI agar dilution method; assay type: functional
[15] = system: Acinetobacter genospecies 3; test: Antimicrobial activity against imipenem and meropenem-resistant Acinetobacter genospecies 3 isolate PUA7 by CLSI agar dilution method
[16] = system: Acinetobacter baumannii; test: Antimicrobial activity against imipenem and meropenem-resistant Acinetobacter baumannii isolate NJ59 by CLSI agar dilution method; assay type: functional
[17] = system: Acinetobacter baumannii; test: Antimicrobial activity against imipenem and meropenem-resistant Acinetobacter baumannii isolate ZJ36 by CLSI agar dilution method; assay type: functional
[18] = system: Acinetobacter phenon 5; test: Antimicrobial activity against imipenem and meropenem-resistant Acinetobacter phenon 5 isolate PUA6 by CLSI agar dilution method
[19] = system: Acinetobacter baumannii; test: Antimicrobial activity against imipenem and meropenem-resistant Acinetobacter baumannii isolate BJ55 by CLSI agar dilution method; assay type: functional
[20] = system: Acinetobacter baumannii; test: Antimicrobial activity against imipenem and meropenem-resistant Acinetobacter baumannii isolate DL34 by CLSI agar dilution method; assay type: functional
[21] = system: Acinetobacter baumannii; test: Antimicrobial activity against imipenem and meropenem-resistant Acinetobacter baumannii isolate BJ52 by CLSI agar dilution method; assay type: functional
[22] = system: Acinetobacter phenon 6/ct 13TU; test: Antimicrobial activity against imipenem and meropenem-resistant Acinetobacter phenon 6/ct 13TU isolate FZ4A18 by CLSI agar dilution method
[23] = system: Acinetobacter genospecies 10/11; test: Antimicrobial activity against imipenem and meropenem-resistant Acinetobacter genospecies 10/11 isolate ZS5 by CLSI agar dilution method
[24] = system: Acinetobacter genomosp. 3; test: Antimicrobial activity against imipenem and meropenem-resistant Acinetobacter genospecies 3 isolate PU78 by CLSI agar dilution method; conditions: Acinetobacter genomosp. 3, isolate PU78
[25] = system: Acinetobacter baumannii; test: Antimicrobial activity against imipenem and meropenem-resistant Acinetobacter baumannii isolate BJ3-23 by CLSI agar dilution method; assay type: functional
[26] = system: Acinetobacter baumannii; test: Antimicrobial activity against imipenem and meropenem-resistant Acinetobacter baumannii isolate PU4A22 by CLSI agar dilution method; assay type: functional
[27] = system: Acinetobacter phenon 6/ct 13TU; test: Antimicrobial activity against imipenem and meropenem-resistant Acinetobacter phenon 6/ct 13TU isolate PU86 by CLSI agar dilution method
[28] = system: Acinetobacter genospecies 3; test: Antimicrobial activity against imipenem and meropenem-resistant Acinetobacter genospecies 3 isolate PU78 by CLSI agar dilution method

`CN(C)c1ccc(O)c2c1C[C@H]1C[C@H]3[C@H](N(C)C)C(O)=C(C(N)=O)C(=O)[C@@]3(O)C(O)=C1C2=O` [MINOCYCLINE] was tested, and the MIC [1] was 4 µg/mL (≈ 8.74 µM), the MIC [2] was 16 µg/mL (≈ 35 µM) and the MIC [3] was 0.25 µg/mL (≈ 0.546 µM). The MIC [4] was 4 µg/mL (≈ 8.74 µM), the MIC [5] was 0.5 µg/mL (≈ 1.09 µM) and the MIC [6] was 0.25 µg/mL (≈ 0.546 µM). For the same compound, the MIC [7] was at most 0.125 µg/mL, the MIC [8] was 4 µg/mL (≈ 8.74 µM) and the MIC [9] was 32 µg/mL (≈ 69.9 µM). For the same compound, the MIC [10] was 8 µg/mL (≈ 17.5 µM), the MIC [11] was 0.5 µg/mL (≈ 1.09 µM) and the MIC [12] was 16 µg/mL (≈ 35 µM). The MIC [13] was 2 µg/mL (≈ 4.37 µM), the MIC [14] was 2 µg/mL (≈ 4.37 µM) and the MIC [15] was 0.5 µg/mL (≈ 1.09 µM). It also gave an MIC [16] of 4 µg/mL (≈ 8.74 µM), an MIC [17] of 32 µg/mL (≈ 69.9 µM) and an MIC [18] of 0.5 µg/mL (≈ 1.09 µM). It also gave an MIC [19] of 16 µg/mL (≈ 35 µM), an MIC [20] of 8 µg/mL (≈ 17.5 µM) and an MIC [21] of 8 µg/mL (≈ 17.5 µM). The MIC [22] was 0.5 µg/mL (≈ 1.09 µM), the MIC [23] was 8 µg/mL (≈ 17.5 µM) and the MIC [24] was at most 0.125 µg/mL. The MIC [25] was 8 µg/mL (≈ 17.5 µM) and the MIC [26] was 2 µg/mL (≈ 4.37 µM).

Compound COLISTIN has an MIC [1] of 0.5 µg/mL, an MIC [2] of 1 µg/mL and an MIC [3] of 0.5 µg/mL. It also gave an MIC [4] of 1 µg/mL, an MIC [5] of 1 µg/mL and an MIC [6] of 1 µg/mL. For the same compound, the MIC [27] was 1 µg/mL, the MIC [8] was 0.5 µg/mL and the MIC [9] was 1 µg/mL. For the same compound, the MIC [10] was 1 µg/mL, the MIC [11] was 0.5 µg/mL and the MIC [12] was 1 µg/mL. The MIC [13] was 0.5 µg/mL, the MIC [14] was 0.5 µg/mL and the MIC [15] was 0.5 µg/mL. It also gave an MIC [16] of 0.5 µg/mL, an MIC [17] of 1 µg/mL and an MIC [18] of 0.5 µg/mL. The MIC [19] was 0.5 µg/mL, the MIC [20] was 0.5 µg/mL and the MIC [21] was 1 µg/mL. The MIC [22] was 1 µg/mL, the MIC [23] was 0.5 µg/mL and the MIC [28] was 1 µg/mL. It also gave an MIC [25] of 1 µg/mL and an MIC [26] of 1 µg/mL.
